# Columns and labels:
# Haemophilus influenzae [1] = experiment: Antibacterial activity against Haemophilus influenzae PBS981; type: functional
# Providencia sp. = experiment: Antibacterial activity against Providencia sp.; type: functional
# Clostridioides difficile [2] = experiment: Antibacterial activity against Clostridium difficile infected in hamster model assessed as median survival time; type: functional
# [3] = Induction of CYP2B6 mRNA level in human primary hepatocytes at 1 to 100 uM after 24 to 48 hrs relative to control; type: ADME, cell-based, Hepatocyte
# Klebsiella pneumoniae = experiment: Antibacterial activity against Klebsiella pneumoniae by microdilution broth assay; type: functional
# [4] = Induction of CYP1A2 mRNA level in human primary hepatocytes at 1 to 100 uM after 24 to 48 hrs relative to control; type: ADME, cell-based, Hepatocyte
# [5] = Induction of CYP1B1 mRNA level in human primary hepatocytes at 1 to 100 uM after 24 to 48 hrs relative to control; type: ADME, cell-based, Hepatocyte
# Clostridioides difficile [6] = experiment: Antibacterial activity against Clostridium difficile by broth microdilution assay; type: functional
# Staphylococcus aureus [7] = experiment: Antibacterial activity against Staphylococcus aureus USA400; type: functional
# Clostridium perfringens = experiment: Antibacterial activity against Clostridium perfringens; type: functional
# [8] = Induction of CYP2C8 mRNA level in human primary hepatocytes at 1 to 100 uM after 24 to 48 hrs relative to control; type: ADME, cell-based, Hepatocyte
# [9] = molecular target: Voltage-gated inwardly rectifying potassium channel KCNH2 (Homo sapiens, UniProt Q12809); experiment: Inhibition of human ERG
# [10] = Induction of CYP3A4/5 mRNA level in human primary hepatocytes at 1 to 100 uM after 24 to 48 hrs relative to control; type: ADME, cell-based, Hepatocyte
# Staphylococcus aureus [11] = experiment: Antibacterial activity against Staphylococcus aureus USA400 in mouse thigh wound infection model assessed as reduction in bacterial load administered intravenously as single dose after 2 hrs of infection measured after 24 hrs post treatment; type: functional; conditions: USA400, iv
# [12] = Metabolic stability in human microsomes at 4.8 uM after 30 mins; type: ADME, Microsome; conditions: read-out: Stability
# [13] = Induction of CYP2J2 mRNA level in human primary hepatocytes at 1 to 100 uM after 24 to 48 hrs relative to control; type: ADME, cell-based, Hepatocyte
# [14] = Induction of CYP2D6 mRNA level in human primary hepatocytes at 1 to 100 uM after 24 to 48 hrs relative to control; type: ADME, cell-based, Hepatocyte
# Clostridioides difficile [15] = experiment: Antibacterial activity against Clostridium difficile by agar microdilution assay; type: functional
# Haemophilus influenzae [16] = experiment: Antibacterial activity against Haemophilus influenzae by microdilution broth assay; type: functional
# [17] = Induction of CYP2C19 mRNA level in human primary hepatocytes at 1 to 100 uM after 24 to 48 hrs relative to control; type: ADME, cell-based, Hepatocyte
# Moraxella catarrhalis = experiment: Antibacterial activity against Moraxella catarrhalis; type: functional
# [18] = Metabolic stability in human hepatocytes at 48 uM up to 24 hrs; type: ADME, cell-based, Hepatocyte; conditions: read-out: Stability
# Klebsiella aerogenes = experiment: Antibacterial activity against Enterobacter aerogenes; type: functional
# [19] = Induction of CYP2E1 mRNA level in human primary hepatocytes at 1 to 100 uM after 24 to 48 hrs relative to control; type: ADME, cell-based, Hepatocyte
# Enterobacter cloacae = experiment: Antibacterial activity against Enterobacter cloacae; type: functional
# Streptococcus pneumoniae [20] = experiment: Antibacterial activity against Streptococcus pneumoniae PBS1399; type: functional
# [21] = Induction of CYP2A6 mRNA level in human primary hepatocytes at 1 to 100 uM after 24 to 48 hrs relative to control; type: ADME, cell-based, Hepatocyte
# Serratia marcescens = experiment: Antibacterial activity against Serratia marcescens; type: functional
# Escherichia coli [22] = experiment: Antibacterial activity against Escherichia coli; type: functional
# Haemophilus influenzae [23] = experiment: Antibacterial activity against Haemophilus influenzae; type: functional
# Escherichia coli [24] = experiment: Antibacterial activity against Escherichia coli by microdilution broth assay; type: functional
# Staphylococcus aureus [25] = experiment: Antibacterial activity against Staphylococcus aureus USA300 in mouse thigh wound infection model assessed as reduction in bacterial load administered intravenously as single dose after 2 hrs of infection measured after 24 hrs post treatment; type: functional; conditions: USA300, iv
# Salmonella sp. = experiment: Antibacterial activity against Salmonella sp.; type: functional
# Pseudomonas aeruginosa = experiment: Antibacterial activity against Pseudomonas aeruginosa; type: functional
# Shigella sp. = experiment: Antibacterial activity against Shigella sp.; type: functional
# Haemophilus influenzae [26] = experiment: Antibacterial activity against Haemophilus influenzae PBS981 infected in CD-1 mouse assessed as reduction in bacterial load in lungs administered intravenously as single dose after 2 hrs of infection measured after 24 hrs post treatment; type: functional; conditions: PBS981, iv
# Streptococcus pneumoniae [27] = experiment: Antibacterial activity against Streptococcus pneumoniae PBS1399 infected in mouse assessed as protection against bacterial infection by measuring mouse survival administered intravenously as single dose after 2 hrs of infection measured on day 7; type: functional; conditions: PBS1399, iv, read-out: PD50
# Haemophilus influenzae [28] = experiment: […] activity against Haemophilus influenzae assessed as reduction in bacterial load at MIC by time-kill analysis; type: functional
# [29] = tested on: Stenotrophomonas maltophilia; experiment: Antibacterial activity against Stenotrophomonas maltophilia; type: functional
# Staphylococcus aureus [30] = experiment: Antibacterial activity against Staphylococcus aureus USA300; type: functional
# Bacteroides fragilis = experiment: Antibacterial activity against Bacteroides fragilis; type: functional
# [31] = Induction of CYP2C9 mRNA level in human primary hepatocytes at 1 to 100 uM after 24 to 48 hrs relative to control; type: ADME, cell-based, Hepatocyte
# Proteus sp. = experiment: Antibacterial activity against Proteus sp.; type: functional; conditions: Proteus sp. (in: enterobacteria)
# [32] = Induction of CYP1A1 mRNA level in human primary hepatocytes at 1 to 100 uM after 24 to 48 hrs relative to control; type: ADME, cell-based, Hepatocyte
# Sequence of Voltage-gated inwardly rectifying potassium channel KCNH2 (Q12809 whole entry): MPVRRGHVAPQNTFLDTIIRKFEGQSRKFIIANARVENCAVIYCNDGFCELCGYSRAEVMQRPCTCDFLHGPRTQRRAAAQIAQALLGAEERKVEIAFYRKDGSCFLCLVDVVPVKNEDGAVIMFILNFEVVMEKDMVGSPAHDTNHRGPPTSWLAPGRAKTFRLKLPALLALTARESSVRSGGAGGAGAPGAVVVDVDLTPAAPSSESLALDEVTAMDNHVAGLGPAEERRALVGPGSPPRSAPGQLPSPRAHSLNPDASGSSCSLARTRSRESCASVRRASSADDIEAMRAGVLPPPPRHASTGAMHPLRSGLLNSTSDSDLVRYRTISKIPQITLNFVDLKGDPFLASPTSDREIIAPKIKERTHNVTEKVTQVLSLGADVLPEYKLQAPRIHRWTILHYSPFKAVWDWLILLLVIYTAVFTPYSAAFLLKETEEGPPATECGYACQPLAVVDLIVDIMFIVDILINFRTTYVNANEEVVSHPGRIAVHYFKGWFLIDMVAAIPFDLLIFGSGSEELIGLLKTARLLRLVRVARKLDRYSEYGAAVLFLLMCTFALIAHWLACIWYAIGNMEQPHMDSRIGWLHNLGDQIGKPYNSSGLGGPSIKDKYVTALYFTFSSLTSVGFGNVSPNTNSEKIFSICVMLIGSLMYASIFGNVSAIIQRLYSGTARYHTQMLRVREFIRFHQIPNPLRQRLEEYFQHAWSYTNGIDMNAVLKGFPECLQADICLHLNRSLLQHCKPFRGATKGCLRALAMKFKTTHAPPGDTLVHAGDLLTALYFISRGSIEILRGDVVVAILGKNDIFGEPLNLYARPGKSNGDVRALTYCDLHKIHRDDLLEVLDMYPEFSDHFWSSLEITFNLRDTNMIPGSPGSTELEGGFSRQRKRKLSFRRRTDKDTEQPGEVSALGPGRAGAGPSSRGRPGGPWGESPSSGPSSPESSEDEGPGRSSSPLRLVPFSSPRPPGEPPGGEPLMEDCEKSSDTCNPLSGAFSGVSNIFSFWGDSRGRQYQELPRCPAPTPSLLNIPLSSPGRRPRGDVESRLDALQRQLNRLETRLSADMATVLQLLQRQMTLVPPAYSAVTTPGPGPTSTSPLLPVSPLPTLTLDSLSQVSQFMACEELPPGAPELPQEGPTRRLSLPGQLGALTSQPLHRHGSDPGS
compound,measurement,setting,value
CN(C)c1cc(CNCC(C)(C)C)c(O)c2c1C[C@H]1C[C@H]3[C@H](N(C)C)C(O)=C(C(N)=O)C(=O)[C@@]3(O)C(O)=C1C2=O [OMADACYCLINE],MIC,Haemophilus influenzae [1],1 µg/mL
same,MIC90,Providencia sp.,> 16 µg/mL
same,MST,Clostridioides difficile [2],12 days
same,Activity,[3],< 40%
same,MIC90,Klebsiella pneumoniae,2 to 4 µg/mL
same,Activity,[4],< 40%
same,Activity,[5],< 40%
same,MIC90,Clostridioides difficile [6],0.06 µg/mL
same,MIC,Staphylococcus aureus [7],0.5 µg/mL
same,MIC90,Clostridium perfringens,0.12 to 4 µg/mL
same,Activity,[8],< 40%
same,IC25,[9],166 µg/mL
same,Activity,[10],< 40%
same,ED50,Staphylococcus aureus [11],0.68 mg/kg
same,"remaining at 0.5 h, 4.8 µM",[12],> 90%
same,Activity,[13],< 40%
same,Activity,[14],< 40%
same,MIC90,Clostridioides difficile [15],0.12 µg/mL
same,MIC90,Haemophilus influenzae [16],2 to 4 µg/mL
same,Activity,[17],< 40%
same,MIC90,Moraxella catarrhalis,0.25 µg/mL
same,"remaining at 24 h, 48 µM",[18],> 86%
same,MIC90,Klebsiella aerogenes,< 4 µg/mL
same,Activity,[19],< 40%
same,MIC90,Enterobacter cloacae,< 4 µg/mL
same,MIC,Streptococcus pneumoniae [20],0.125 µg/mL
same,Activity,[21],< 40%
same,MIC90,Serratia marcescens,< 4 µg/mL
same,MIC90,Escherichia coli [22],< 4 µg/mL
same,MIC90,Haemophilus influenzae [23],2 µg/mL
same,MIC90,Escherichia coli [24],2 to 4 µg/mL
same,ED50,Staphylococcus aureus [25],0.4 mg/kg
same,MIC90,Salmonella sp.,< 4 µg/mL
same,MIC90,Pseudomonas aeruginosa,> 16 µg/mL
same,MIC90,Shigella sp.,< 4 µg/mL
same,ED50,Haemophilus influenzae [26],6.47 mg/kg
same,ED50,Streptococcus pneumoniae [27],1.5 mg/kg
same,Activity,Haemophilus influenzae [28],>=3 log10CFU
same,MIC90,[29],< 4 µg/mL
same,MIC,Staphylococcus aureus [30],0.25 µg/mL
same,MIC90,Bacteroides fragilis,0.12 to 4 µg/mL
same,Activity,[31],< 40%
same,MIC90,Proteus sp.,> 16 µg/mL
same,Activity,[32],< 40%
